The text below walks through data of PMC6874683, “Pyrrothiogatain acts as an inhibitor of GATA family proteins and inhibits Th2 cell differentiation in vitro” (Scientific Reports, 2019).

One test addresses T1, GATA3-SOX4 interaction (Homo sapiens, UniProt P23771).
T1 construct: we synthesized the recombinant full-length GATA3 protein with an N-terminal FLAG tag using the wheat cell-free system; made in house; host or cells: wheat cell-free protein synthesis system (WEPRO1240 kit), BirA added for biotinylation
The experiment in a line: AlphaScreen binding assay of GATA3 and SOX4. The following applies: pyrrothiogatain 0 to 100 µM. The protocol:
The GATA3 protein has been reported to directly interact with SOX4[22]. We next investigated whether pyrrothiogatain interrupted the interaction between GATA3 and SOX4. […] Interaction between biotin-labelled SOX4 and FLAG-GATA3 was analysed by the AlphaScreen system (Fig. 4B).
Figure 4 Pyrrothiogatain inhibits the GATA3–SOX4 interaction. (A) Immunoblot analysis of biotin fused recombinant SOX4 (Biotin-SOX4) synthesized by the wheat cell-free system. The whole translational mixture (W) and the supernatant (S) were analysed using an anti-biotin antibody. (B) A schematic diagram of the binding assay to detect the direct binding between GATA3 and SOX4. When FLAG-tagged GATA3 binds with biotin fused SOX4, AlphaScreen beads generate a luminescent signal. (C) The binding assay of GATA3 and SOX4. The luminescence signals were detected by AlphaScreen technology. FLAG-DHFR was used as a control. (D) The inhibition assay of the binding of GATA3 and SOX4 in the presence of various concentrations of pyrrothiogatain (0 to 100 µM). The binding activity was calculated from the AlphaScreen signal. (E) The binding of recombinant GATA3 with SOX4 in the presence of pyrrothiogatain (0 to 100 µM) was assessed by immunoprecipitation assay. […] In (C,D), all data are expressed as individual points of three independent experiments with error bars indicating standard deviation.
On the technique in general: Alpha assays give light when donor and acceptor beads are brought close together.

A further test has as its system Th2 cytokines. Description: ELISA of cytokine production, naive CD4+ T cells under Th2 conditions. The test is classed as cell-based, mouse. To be noted: 30 and 80 µM, 5 days. The protocol:
C57BL/6 mice were purchased from Clea (Clea Japan, Inc., Tokyo, Japan). Total CD4^+ T cells isolated from mouse spleen were prepared using a FITC anti-mouse CD4 antibody (Cat#100510, RM4–5, BioLegend) and anti-FITC-microbeads (Cat#130-097-050, Miltenyi Biotec). Naive CD4^+ T cells (CD44^low, CD62L^high) were prepared using a MojoSort Mouse CD4 T cell Isolation Kit (Cat#480033), BioLegend). Biotinylated anti-CD44 (Cat#103004, IM7) and anti-CD25 antibodies (Cat#102004, PC61) were purchased from BioLegend. […]
The CD4^+ T cells cultured for five days were stimulated using an immobilized anti-TCR-β mAb (3 µg/mL, H57–597, BioLegend) for 16 h, and the culture supernatants were recovered. The amount of cytokines in the recovered supernatants was determined with ELISA using the following antibodies and reagents: anti-IL-4 mAb (Cat#554387, BD Biosciences), biotin-anti-IL-4 mAb (Cat#554390, BD Biosciences), anti-IL-5 mAb (Cat#554393, BD Biosciences), biotin-anti-IL-5 mAb (Cat#554397, BD Biosciences), anti-IFN-γ mAb (Cat#551216, BD Biosciences), biotin-anti-IFN-γ mAb (Cat#554410, BD Biosciences), anti-IL-2 mAb (Cat#554424, BD Biosciences), biotin-anti-IL-2 mAb (Cat#554426, BD Biosciences), streptavidin horseradish peroxidase (Cat#434323, Invitrogen), and TMB peroxidase EIA substrate kit (Cat#1721066, BioRad). […]
On the technique in general: ELISA stands for enzyme-linked immunosorbent assay.

T1 sequence (P23771 whole entry): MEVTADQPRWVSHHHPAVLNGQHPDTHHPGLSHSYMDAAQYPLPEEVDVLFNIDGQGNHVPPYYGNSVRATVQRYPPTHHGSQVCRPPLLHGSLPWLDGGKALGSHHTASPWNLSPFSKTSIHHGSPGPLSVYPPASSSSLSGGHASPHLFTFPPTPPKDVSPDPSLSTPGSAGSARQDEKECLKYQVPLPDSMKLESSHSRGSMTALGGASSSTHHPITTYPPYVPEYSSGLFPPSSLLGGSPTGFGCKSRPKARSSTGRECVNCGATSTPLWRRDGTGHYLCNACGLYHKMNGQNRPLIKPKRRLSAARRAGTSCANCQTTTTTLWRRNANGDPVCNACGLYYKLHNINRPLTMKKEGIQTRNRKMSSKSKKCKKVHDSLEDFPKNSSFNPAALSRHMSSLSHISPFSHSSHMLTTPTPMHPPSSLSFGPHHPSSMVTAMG

As a reminder, the IC50 is the concentration that gives 50% inhibition. The compound `Cc1ccc(C)n1-c1ccsc1C(=O)O` [Pyrrothiogatain, 3-(2,5-dimethyl-1H-pyrrol-1-yl)thiophene-2-carboxylic acid] displayed an IC50 on GATA3-SOX4 interaction of 95.2 µM. Also, the “Production of IL-4, IL-5 and IL-13 (ELISA)” value in the test on Th2 cytokines is “Decreased”.
